Reference: patent publication US12594276B2, “Inhibitors of human immunodeficiency virus replication” (ViiV Healthcare UK (No.5) Limited, priority 2024, dated 2026)
Where two headings read alike, the source gives them in different places.

Legend:
[1] = Compound cytotoxicity, XTT-based colorimetric assay; type: cell-based; conditions: human
Method: Compound cytotoxicity and the corresponding CC50 values were determined using the same protocol as described in the antiviral assay except that uninfected cells were used. Cytotoxicity was assessed on day 4 in uninfected MT2 cells by using an XTT (2,3-bis[2-Methoxy-4-nitro-5-sulfophenyl]-2H-tetrazolium-5-carboxyanilide inner salt)-based colorimetric assay (Sigma-Aldrich, St Louis, Mo).

[2] = system: recombinant NL4-3 virus (nef section replaced with Renilla luciferase gene) in MT-2 cells; experiment: HIV cell culture assay (antiviral activity, luciferase readout); type: cell-based; conditions: Renilla, NL43, MT-2 cells infected for 4-5 days with recombinant NL4-3 Renilla luciferase virus
Method: HIV cell culture assay—MT-2 cells, 293T cells and the proviral DNA clone of NL4-3 virus were obtained from the NIH AIDS Research and Reference Reagent Program. MT-2 cells were propagated in RPMI 1640 media supplemented with 10% heat inactivated fetal bovine serum (FBS), […]. The 293T cells were propagated in DMEM media supplemented with 10% heat inactivated FBS, […]. A recombinant NL4-3 proviral clone, in which a section of the nef gene was replaced with the Renilla luciferase gene, was used to make the reference virus used in these studies. The recombinant virus was prepared through transfection of the recombinant NL4-3 proviral clone into 293T cells using Transit-293 Transfection Reagent from Mirus Bio LLC (Madison, WI). Supernatant was harvested after 2-3 days and the amount of virus present was titered in MT-2 cells using luciferase enzyme activity as a marker by measuring luciferase enzyme activity. Luciferase was quantitated using the EnduRen Live Cell Substrate from Promega (Madison, WI). Antiviral activities of compounds toward the recombinant virus were quantified by measuring luciferase activity in MT-2 cells infected for 4-5 days with the recombinant virus in the presence of serial dilutions of the compound.
The 50% effective concentration (EC50) was calculated by using the exponential form of the median effect equation where (Fa)=1/[1+(ED50/drug conc.)m](Johnson V A, Byington R T. Infectivity Assay. In Techniques in HIV Research. ed. Aldovini A, Walker B D. 71-76. New York: Stockton Press. 1990). Curve fitting and analysis were performed with ActivityBase XE Runner software version 9.1.0.4 using model 203 (ID Business Solutions, LTD, Guildford, UK).

[3] = uninfected MT2 cells, day 4, XTT, read-out: CC50

SMILES | CC50 at 4 days [1, 3] | EC50 [2] | CC50 at 4 days [1]
CC(C)[C@H]1CN(CCn2nc(NS(C)(=O)=O)c3c(Cl)ccc(-n4c([C@H](Cc5cc(F)cc(F)c5)NC(=O)Cn5nc(C6CC6)c6c5C[C@@H]5C[C@H]65)nc5nc(C6CCC(F)(F)CC6)ccc5c4=O)c32)CCO1 (atropisomer, axis not shown; (P)) [Example 434, N-[(1S)-1-[(3P)-3-(4-chloro-3-methanesulfonamido-1-{2-[(2S)-2-(propan-2-yl)morpholin-4-yl]ethyl}-1H-indazol-7-yl)-7-(4,4-difluorocyclohexyl)-4-oxo-3H,4H-pyrido[2,3-d]pyrimidin-2-yl]-2-(3,5-difluorophenyl)ethyl]-2-[(2S,4S)-9-cyclopropyl-7,8-diazatricyclo[4.3.0.0^2,^4]nona-1(6),8-dien-7-yl]acetamide] | > 20 nM | 0.01 nM | 
COCCCn1nc(NS(C)(=O)=O)c2c(Cl)ccc(-n3c([C@H](Cc4cc(F)cc(F)c4)NC(=O)Cn4nc(C(F)F)c5c4C(F)(F)[C@@H]4C[C@H]54)nc4nc(C5CCC(F)(F)CC5)cc(CF)c4c3=O)c21 (atropisomer, axis not shown; (P)) [Example 449, N-[(1S)-1-[(3P)-3-[4-chloro-3-methanesulfonamido-1-(3-methoxypropyl)-1H-indazol-7-yl]-7-(4,4-difluorocyclohexyl)-5-(fluoromethyl)-4-oxo-3H,4H-pyrido[2,3-d]pyrimidin-2-yl]-2-(3,5-difluorophenyl)ethyl]-2-[(2S,4R)-9-(difluoromethyl)-5,5-difluoro-7,8-diazatricyclo[4.3.0.0^2,4]nona-1(6),8-dien-7-yl]acetamide] | > 20 nM | 0.009 nM | 
C[C@H](CN1C[C@H](F)C[C@H](F)C1)n1nc(NS(C)(=O)=O)c2c(Cl)ccc(-n3c([C@H](Cc4cc(F)cc(F)c4)NC(=O)Cn4nc(C(F)F)c5c4C(F)(F)[C@@H]4C[C@H]54)nc4nc(C5CCC(F)(F)CC5)cc(C5CC5)c4c3=O)c21 (atropisomer, axis not shown; (P)) [Example 716, N-[(1S)-1-[(3P)-3-{4-chloro-1-[(2R)-1-[(3R,5S)-3,5-difluoropiperidin-1-yl]propan-2-yl]-3-methanesulfonamido-1H-indazol-7-yl}-5-cyclopropyl-7-(4,4-difluorocyclohexyl)-4-oxo-3H,4H-pyrido[2,3-d]pyrimidin-2-yl]-2-(3,5-difluorophenyl)ethyl]-2-[(2S,4R)-9-(difluoromethyl)-5,5-difluoro-7,8-diazatricyclo[4.3.0.0^2,^4]nona-1(6),8-dien-7-yl]acetamide] | > 20 nM | 0.035 nM | 
COCCNc1cc(C2CCC(F)(F)CC2)nc2nc([C@H](Cc3cc(F)cc(F)c3)NC(=O)Cn3nc(C(F)F)c4c3C(F)(F)[C@@H]3C[C@H]43)n(-c3ccc(Cl)c4c(NS(C)(=O)=O)nn(CCN5CCC(F)(F)CC5)c34)c(=O)c12 (atropisomer, axis not shown; (P)) [Example 413, N-[(1S)-1-[(3P)-3-{4-chloro-1-[2-(4,4-difluoropiperidin-1-yl)ethyl]-3-methanesulfonamido-1H-indazol-7-yl}-7-(4,4-difluorocyclohexyl)-5-[(2-methoxyethyl)amino]-4-oxo-3H,4H-pyrido[2,3-d]pyrimidin-2-yl]-2-(3,5-difluorophenyl)ethyl]-2-[(2S,4R)-9-(difluoromethyl)-5,5-difluoro-7,8-diazatricyclo[4.3.0.0^2,^4]nona-1(6),8-dien-7-yl]acetamide] | > 20 nM | 0.013 nM | 
Cc1cc(C2CCC(F)(F)CC2)nc2nc([C@H](Cc3cc(F)cc(F)c3)NC(=O)Cn3nc(C(F)F)c4c3C(F)(F)[C@@H]3C[C@H]43)n(-c3ccc(Cl)c4c(NS(C)(=O)=O)nn(CCOC(C)(C)C)c34)c(=O)c12 (atropisomer, axis not shown; (P)) [Example 129, N-[(1S)-1-[(3P)-3-{1-[2-(tert-butoxy)ethyl]-4-chloro-3-methanesulfonamido-1H-indazol-7-yl}-7-(4,4-difluorocyclohexyl)-5-methyl-4-oxo-3H,4H-pyrido[2,3-d]pyrimidin-2-yl]-2-(3,5-difluorophenyl)ethyl]-2-[(2S,4R)-9-(difluoromethyl)-5,5-difluoro-7,8-diazatricyclo[4.3.0.0^2,^4]nona-1(6),8-dien-7-yl]acetamide] | > 50 nM | 0.024 nM | 
COCCCn1nc(NS(C)(=O)=O)c2c(Cl)ccc(-n3c([C@H](Cc4cc(F)cc(F)c4)NC(=O)Cn4nc(C(F)F)c5c4C(F)(F)[C@@H]4C[C@H]54)nc4nc(C5CCC(F)(F)CC5)cc(CN5C[C@H]6C[C@@H](C5)O6)c4c3=O)c21 (atropisomer, axis not shown; (P)) [Example 531, N-[(1S)-1-[(3P)-3-[4-chloro-3-methanesulfonamido-1-(3-methoxypropyl)-1H-indazol-7-yl]-7-(4,4-difluorocyclohexyl)-5-{[(1R,5S)-6-oxa-3-azabicyclo[3.1.1]heptan-3-yl]methyl}-4-oxo-3H,4H-pyrido[2,3-d]pyrimidin-2-yl]-2-(3,5-difluorophenyl)ethyl]-2-[(2S,4R)-9-(difluoromethyl)-5,5-difluoro-7,8-diazatricyclo[4.3.0.0^2,^4]nona-1(6),8-dien-7-yl]acetamide] |  | 0.021 nM | > 20 nM
Cc1cc(C2(F)CCC(F)(F)CC2)nc2nc([C@H](Cc3cc(F)cc(F)c3)NC(=O)Cn3nc(C(F)F)c4c3C(F)(F)[C@@H]3C[C@H]43)n(-c3ccc(Cl)c4c(NS(C)(=O)=O)nn(CCN5[C@@H]6CC[C@H]5COC6)c34)c(=O)c12 (atropisomer, axis not shown; (P)) [Example 590, N-[(1S)-1-[(3P)-3-(4-chloro-3-methanesulfonamido-1-{2-[(1R,5S)-3-oxa-8-azabicyclo[3.2.1]octan-8-yl]ethyl}-1H-indazol-7-yl)-5-methyl-4-oxo-7-(1,4,4-trifluorocyclohexyl)-3H,4H-pyrido[2,3-d]pyrimidin-2-yl]-2-(3,5-difluorophenyl)ethyl]-2-[(2S,4R)-9-(difluoromethyl)-5,5-difluoro-7,8-diazatricyclo[4.3.0.0^2,^4]nona-1(6),8-dien-7-yl]acetamide] |  | 0.013 nM | > 20 nM
Cc1cc(C2CCC(F)(F)CC2)nc2nc([C@H](Cc3cc(F)cc(F)c3)NC(=O)Cn3nc(C4CC4)c4c3C[C@@H]3C[C@H]43)n(-c3ccc(Cl)c4c(NS(C)(=O)=O)nn(CCN5[C@@H]6CC[C@H]5CC(F)(F)C6)c34)c(=O)c12 (atropisomer, axis not shown; (P)) [Example 245] |  | 0.019 nM | > 50 nM
CC(=O)c1cc(C2CCC(F)(F)CC2)nc2nc([C@H](Cc3cc(F)cc(F)c3)NC(=O)Cn3nc(C(F)F)c4c3C(F)(F)[C@@H]3C[C@H]43)n(-c3ccc(Cl)c4c(NS(C)(=O)=O)nn(CCN5CCC(F)(F)CC5)c34)c(=O)c12 (atropisomer, axis not shown; (P)) [Example 746, N-[(1S)-1-[(3P)-5-acetyl-3-{4-chloro-1-[2-(4,4-difluoropiperidin-1-yl)ethyl]-3-methanesulfonamido-1H-indazol-7-yl}-7-(4,4-difluorocyclohexyl)-4-oxo-3H,4H-pyrido[2,3-d]pyrimidin-2-yl]-2-(3,5-difluorophenyl)ethyl]-2-[(2S,4R)-9-(difluoromethyl)-5,5-difluoro-7,8-diazatricyclo[4.3.0.0^2,4]nona-1(6),8-dien-7-yl]acetamide] | > 20 nM | 0.008 nM | 
Cc1cc(C2(F)CCC(F)(F)CC2)nc2nc([C@H](Cc3cc(F)cc(F)c3)NC(=O)Cn3nc(C(F)F)c4c3C(F)(F)[C@@H]3C[C@H]43)n(-c3ccc(Cl)c4c(NS(C)(=O)=O)nn(CCN5CC6CC(C5)O6)c34)c(=O)c12 [Example 588, N-[(1S)-1-[(3P)-3-[4-chloro-3-methanesulfonamido-1-(2-{6-oxa-3-azabicyclo[3.1.1]heptan-3-yl}ethyl)-1H-indazol-7-yl]-5-methyl-4-oxo-7-(1,4,4-trifluorocyclohexyl)-3H,4H-pyrido[2,3-d]pyrimidin-2-yl]-2-(3,5-difluorophenyl)ethyl]-2-[(2S,4R)-9-(difluoromethyl)-5,5-difluoro-7,8-diazatricyclo[4.3.0.0^2,^4]nona-1(6),8-dien-7-yl]acetamide] |  | 0.008 nM | > 20 nM
